Series [1] can be described thus: Stability of the compound at pH 7.4. The settings on record: buffer. It is filed as physicochemical.
Series [2] is described as follows: Half life in Sprague-Dawley rat at 0.5 mg/kg, iv. It is filed as ADME, organism-based. Further details: dose 0.5 mg/kg, route intravenous. The settings on record: in vivo.
Series [3] in a line: Oral bioavailability in Sprague-Dawley rat at 5 mg/kg. The settings on record: in vivo. It is filed as ADME, organism-based.
A short description of series [4]: Clearance in Sprague-Dawley rat at 0.5 mg/kg, iv. The arrangement: dose 0.5 mg/kg, route intravenous. Type of series: ADME, organism-based. The settings on record: in vivo.

This is an account of results in ChEMBL document CHEMBL2321873, “1-(4-Phenylpiperazin-1-yl)-2-(1H-pyrazol-1-yl)ethanones as novel CCR1 antagonists” (Bioorg Med Chem Lett, 2013).

In general, half-life refers to how long it takes for the measured level to halve. Higher therefore signals slow loss. For orientation: bioavailability means the share of a dose that reaches the circulation, judged against a reference dose that is usually intravenous. A high value points to good availability. Broadly, the clearance is the rate of elimination divided by the concentration. A low value points to a low capacity for elimination.

For the compound `COc1cc(N2CCN(C(=O)Cn3nc(C(F)(F)F)c(Cl)c3C)[C@H](CO)C2)ccc1Cl`, in series [1], the Stability result was “Unstable”.
`Cc1c(Cl)c(C(F)(F)F)nn1CC(=O)N1CCN(c2ccc(F)cc2)CC1`: in series [2], the half-life was 1.9 h. For the same compound, the bioavailability in series [3] is 10%. The clearance in series [4] is 23 mL/min/kg.
